pEC50, pIC50: −log10 of the molar value. Calls of active or inactive are those of the source. No cut-off for these calls is given here. Side chains are listed from the residue outwards. Peptide text beside a SMILES is read from it. * marks the point of attachment. X1 = CC(=O)N1CCC(C(=O)N(CCCN2CCC(Cc3ccc(C(=O)*)cc3)CC2)c2ccc(C)c(Cl)c2)CC1; PEG12 = NCCOCCOCCOCCOCCOCCOCCOCCOCCOCCOCCOCCOCCC(=O)O Bounds are passed on as bounds.

Data set [1] concerns the target Envelope glycoprotein gp160 (Human immunodeficiency virus 1) (UniProt Q72502). The data set is described as follows: Binding affinity to HIV1 GP41 using GP41 NHR derived N39 peptide assessed as melting temperature incubated for 30 mins by circular dichroism spectroscopy. A general note: CD spectra are sensitive to the conformation of chiral molecules.
For data set [2], the target named is C-C chemokine receptor type 5 (Homo sapiens, UniProt P51681). In words: Antagonist activity at CCR5 (unknown origin) expressed in HEK293 cells co-expressing Galpha16 assessed as intracellular calcium change incubated for 60 mins by Fluo-4 AM calcium flux based FLIPR assay. It is filed as functional, cell-based. For orientation: Calcium flux is commonly read through the fluorescence of an indicator in the cells.

Data set [3] deals with Envelope glycoprotein gp160 (Human immunodeficiency virus 1) (UniProt Q72502). The data set is described as follows: Binding affinity to HIV1 GP41 using GP41 NHR derived N39 peptide assessed as binding constant by isothermal titration calorimetry.
Data set [4] relates to Human immunodeficiency virus 1. The data set is described as follows: Antiviral activity against HIV-1 clinical isolate R5-J32228M4 infected in human CEMx174 5.25M7 cells assessed as reduction in p24 antigen level measured after 4 days by ELISA. It is filed as functional, organism-based. Conditions: Human immunodeficiency virus 1, clinical isolate R5-J32228M4, CEMx174 5.25M7, 96 h. (An ELISA detects its analyte on a solid surface through an enzyme-linked reagent.)

The subject of data set [5] is Human immunodeficiency virus 1. The data set is described as follows: Antiviral activity against HIV-1 clinical isolate X4-92UG024 infected in human CEMx174 5.25M7 cells assessed as reduction in p24 antigen level measured after 4 days by ELISA. Conditions: Human immunodeficiency virus 1, clinical isolate X4-92UG024, CEMx174 5.25M7, 96 h. Format: functional, organism-based.

The target of data set [6] is Envelope glycoprotein gp160 (Human immunodeficiency virus 1) (UniProt Q72502). In words: Binding affinity to HIV1 GP41 using GP41 NHR derived N39 peptide assessed as change in enthalpy by isothermal titration calorimetry.
In data set [7] the test system is Human immunodeficiency virus 1. The data set is described as follows: Antiviral activity against HIV-1 clinical isolate R5-91US-4 infected in human CEMx174 5.25M7 cells assessed as reduction in p24 antigen level measured after 4 days by ELISA. Format: functional, organism-based. To be noted: Human immunodeficiency virus 1, clinical isolate R5-91US-4, CEMx174 5.25M7, 96 h.

Data set [8] deals with Human immunodeficiency virus 1. The data set is described as follows: Antiviral activity against HIV-1 clinical isolate 97 TH-NP1525 infected in human CEMx174 5.25M7 cells assessed as reduction in p24 antigen level measured after 4 days by ELISA. Format: functional, organism-based. To be noted: Human immunodeficiency virus 1, clinical isolate 97 TH-NP1525, CEMx174 5.25M7, 96 h.

The nature of data set [9]: Proteolytic stability in rat plasma assessed as parent compound remaining incubated for 4 hrs by RP-UHPLC analysis. Conditions: read-out: Stability. Format: ADME, cell-free.
Data set [10] concerns Human immunodeficiency virus 1. In words: Antiviral activity against HIV-1 Bal-R5 infected in human CEMx174 5.25M7 cells assessed as reduction in p24 antigen level measured after 4 days by ELISA. Format: functional, organism-based. Conditions: Human immunodeficiency virus 1, Bal-R5, CEMx174 5.25M7, 96 h.
Data set [11] deals with Envelope glycoprotein gp160 (Human immunodeficiency virus 1) (UniProt Q72502). In words: Binding affinity to HIV1 GP41 using GP41 NHR derived N39 peptide at 100 uM incubated for 30 mins by PAGE gel electrophoresis analysis.
Data set [12] deals with Human immunodeficiency virus 1. The data set is described as follows: Antiviral activity against HIV-1 clinical isolate X4-89BZ167 infected in human CEMx174 5.25M7 cells assessed as reduction in p24 antigen level measured after 4 days by ELISA. It is filed as functional, organism-based. To be noted: Human immunodeficiency virus 1, clinical isolate X4-89BZ167, CEMx174 5.25M7, 96 h.

Data set [13] can be described thus: Proteolytic stability in rat kidney incubated upto 240 mins by RP-UHPLC analysis. Format: ADME, tissue-based. Conditions: 4 h.
Data set [14] is described as follows: Proteolytic stability in rat liver assessed as parent compound remaining incubated for 4 hrs by RP-UHPLC analysis. It is filed as ADME, tissue-based. Conditions: read-out: Stability.
In data set [15] the target is Envelope glycoprotein gp160 (Human immunodeficiency virus 1) (UniProt Q72502). In words: Binding affinity to HIV1 GP41 using GP41 NHR derived N39 peptide assessed as change in entropy by isothermal titration calorimetry.

Chain of C-C chemokine receptor type 5 (P51681 whole entry): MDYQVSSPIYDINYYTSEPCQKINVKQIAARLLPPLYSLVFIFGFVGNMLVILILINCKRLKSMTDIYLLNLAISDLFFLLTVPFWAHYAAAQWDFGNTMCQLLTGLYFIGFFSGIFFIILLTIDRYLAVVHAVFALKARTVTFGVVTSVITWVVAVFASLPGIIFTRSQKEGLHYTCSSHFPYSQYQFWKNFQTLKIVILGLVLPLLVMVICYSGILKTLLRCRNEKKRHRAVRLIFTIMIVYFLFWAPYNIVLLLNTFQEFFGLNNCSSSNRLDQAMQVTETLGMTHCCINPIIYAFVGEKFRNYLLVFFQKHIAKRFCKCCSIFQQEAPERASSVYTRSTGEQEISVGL

As to `CC[C@H](C)[C@H](NC(C)=O)C(=O)N[C@@H](CCC(=O)O)C(=O)N[C@@H](CCC(=O)O)C(=O)N[C@@H](CC(C)C)C(=O)N[C@H](C(=O)N[C@@H](CCCNC(=N)N)C(=O)N[C@@H](C)C(=O)N[C@@H](C)C(=O)N[C@@H](CCC(N)=O)C(=O)N[C@@H](CCC(=O)O)C(=O)N[C@@H](CCC(N)=O)C(=O)N[C@@H](CCC(N)=O)C(=O)N[C@@H](CCCNC(=N)N)C(=O)N[C@@H](CCCCN)C(=O)N[C@@H](CC(N)=O)C(=O)N[C@@H](CCC(=O)O)C(=O)N[C@@H](CCC(=O)O)C(=O)N[C@@H](C)C(=O)N[C@@H](CC(C)C)C(=O)N[C@@H](CCCNC(=N)N)C(=O)N[C@@H](CCC(=O)O)C(=O)N[C@@H](CC(C)C)C(=O)N[C@@H](CCCCNC(=O)CCOCCOCCOCCOCCOCCOCCOCCOCCOCCOCCOCCOCCNC(=O)c1ccc(CC2CCN(CCCN(C(=O)C3CCN(C(C)=O)CC3)c3ccc(C)c(Cl)c3)CC2)cc1)C(N)=O)[C@@H](C)CC` (Ac-IEELIRAAQEQQRKNEEALRELK([PEG12-X1])-NH2), in data set [1], the Tm came to 56 °C. The pIC50 (usually the negative decadic logarithm of the IC50, by convention in mol/L) in data set [2] is 7.72. Moreover, in data set [3], the K is 2.1 10^5/M. In addition, the negative logarithm of the EC50 (pEC50) (usually the negative decadic logarithm of the EC50, by convention in mol/L) in data set [4] is 7.79; in data set [5], 8.92; in data set [7], 8.75; in [8], 9.48; in data set [10] it was 10.05; in data set [12], 8.56. In addition, the deltaH in data set [6] is -1.4 10^4cal/mol. For the same compound, the remaining at 4 h in [9] is 100%; in data set [14], over 72%. Also, the result in data set [11] was Active. In addition, in [13], the Stability entry was “Stable”. Further, the deltaS in data set [15] was -23.2 cal/mol/deg.

Values taken from ChEMBL document CHEMBL5360545, “Multitargeted drug design strategy for discovery of short-peptide-based HIV-1 entry inhibitors with high potency” (Eur J Med Chem, 2023).
